Measurements published in patent publication US11161856B2 (H. Lundbeck A/S, priority 2017, dated 2021).

Legend:
[1] = biological target: T1, ABHD6 (Mus musculus, UniProt Q8R2Y0); assay: In vitro competitive activity-based protein profiling, mouse brain proteome (ABHD6); type: biochemical; conditions: mouse brain proteome; for % Inh ABHD6 Brain (Mouse, μM): concentration not given (μM)
T1 construct: Brain; from tissue; host or cells: mouse brain proteome
T1 sequence (Q8R2Y0 1-336): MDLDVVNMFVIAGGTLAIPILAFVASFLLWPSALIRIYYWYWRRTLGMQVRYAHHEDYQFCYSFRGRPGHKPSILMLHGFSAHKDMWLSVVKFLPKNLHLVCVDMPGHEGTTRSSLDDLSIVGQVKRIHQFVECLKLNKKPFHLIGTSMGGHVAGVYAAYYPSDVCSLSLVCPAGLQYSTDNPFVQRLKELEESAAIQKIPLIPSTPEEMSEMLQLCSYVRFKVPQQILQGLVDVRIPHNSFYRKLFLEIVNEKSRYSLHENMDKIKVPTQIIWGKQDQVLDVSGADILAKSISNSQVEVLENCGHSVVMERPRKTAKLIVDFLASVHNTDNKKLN
Description: [The source words this procedure for another target and reports this target under the same test.] In Vitro Competitive Activity-Based Protein Profiling.
Proteomes (human prefrontal cortex or cell membrane fractions) (50 μL, 1.0 mg/mL total protein concentration) were preincubated with varying concentrations of inhibitors at 37° C. After 30 min, FP-Rh or HT-01 (1.0 μL, 50 μM in DMSO) was added and the mixture was incubated for another 30 min at room temperature. Reactions were quenched with SDS loading buffer (15 μL-4×) and run on SDS-PAGE.

[2] = biological target: T2, MGLL (Mus musculus, UniProt O35678); assay: In vitro competitive activity-based protein profiling, mouse brain proteome (MGLL); type: biochemical; conditions: for % Inh MGLL Brain (Mouse, μM): concentration not given (μM)
T2 construct: Brain; from tissue; host or cells: mouse brain proteome
T2 sequence (O35678 1-303): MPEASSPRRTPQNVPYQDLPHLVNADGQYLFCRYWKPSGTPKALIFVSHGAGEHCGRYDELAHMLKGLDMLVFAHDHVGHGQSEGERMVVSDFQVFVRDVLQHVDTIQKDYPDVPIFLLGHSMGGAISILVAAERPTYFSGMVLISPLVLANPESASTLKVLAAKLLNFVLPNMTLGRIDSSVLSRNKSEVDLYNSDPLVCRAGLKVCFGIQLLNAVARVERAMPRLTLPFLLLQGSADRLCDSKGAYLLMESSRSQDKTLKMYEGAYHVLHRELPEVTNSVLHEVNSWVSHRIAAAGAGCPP

Row | SMILES | % Inh ABHD6 Brain (Mouse, μM) [1] | % Inh MGLL Brain (Mouse, μM) [2] | inhibition at 10 µM ([1]; at 10 uM, read-out: % Inh ABHD6 Brain (Mouse)) [%] | inhibition at 10 µM ([2]; at 10 uM, read-out: % Inh MGLL Brain (Mouse)) [%]
1 | CC(=O)N1CCCc2cccc(CN3CCC4(CC3)CN(C(=O)OC(C(F)(F)F)C(F)(F)F)C4)c21 [Example 152, 1,1,1,3,3,3-Hexafluoropropan-2-yl 7-((1-acetyl-1,2,3,4-tetrahydroquinolin-8-yl)methyl)-2,7-diazaspiro[3.5]nonane-2-carboxylate] | ### (### is ≥75%) | ### (### is ≥75%) | – | –
2 | CS(=O)(=O)N1CCC2(CCN(c3ccccc3CN3CCN(C(=O)OC(C(F)(F)F)C(F)(F)F)CC3)C2)C1 (stereo not drawn) [Example 165, 1,1,1,3,3,3-Hexafluoropropan-2-yl 4-(2-(7-(methylsulfonyl)-2,7-diazaspiro[4.4]nonan-2-yl)benzyl)piperazine-1-carboxylate] | # (# is ≤25%) | ### (### is ≥75%) | – | –
3 | CC(=O)N1CCC2(CCN(c3ccccc3CN3CCN(C(=O)OC(C(F)(F)F)C(F)(F)F)CC3)C2)C1 (stereo not drawn) [Example 166, 1,1,1,3,3,3-Hexafluoropropan-2-yl 4-(2-(7-acetyl-2,7-diazaspiro[4.4]nonan-2-yl)benzyl)piperazine-1-carboxylate] | # (# is ≤25%) | ### (### is ≥75%) | – | –
4 | CS(=O)(=O)N1CC2(CCN(c3ccccc3CN3CCN(C(=O)OC(C(F)(F)F)C(F)(F)F)CC3)C2)C1 [Example 167, 1,1,1,3,3,3-Hexafluoropropan-2-yl 4-(2-(2-(methylsulfonyl)-2,6-diazaspiro[3,4]octan-6-yl)benzyl)piperazine-1-carboxylate] | # (# is ≤25%) | ### (### is ≥75%) | – | –
5 | CC(=O)N1CC2(CCN(c3ccccc3CN3CCN(C(=O)OC(C(F)(F)F)C(F)(F)F)CC3)C2)C1 [Example 168, 1,1,1,3,3,3-Hexafluoropropan-2-yl 4-(2-(2-acetyl-2,6-diazaspiro[3.4]octan-6-yl)benzyl)piperazine-1-carboxylate] | # (# is ≤25%) | ### (### is ≥75%) | – | –
6 | CN1CC2(CCN(c3cc(Cl)ccc3CN3CCN(C(=O)OC(C(F)(F)F)C(F)(F)F)CC3)C2)C1 [Example 169, 1,1,1,3,3,3-Hexafluoropropan-2-yl 4-(4-chloro-2-(2-methyl-2,6-diazaspiro[3.4]octan-6-yl)benzyl)piperazine-1-carboxylate] | # (# is ≤25%) | ### (### is ≥75%) | – | –
7 | CCN1CCC2(CCN(c3cc(Cl)ccc3CN3CCN(C(=O)OC(C(F)(F)F)C(F)(F)F)CC3)CC2)C1 [Example 170, 1,1,1,3,3,3-Hexafluoropropan-2-yl 4-(4-chloro-2-(2-ethyl-2,8-diazaspiro[4.5]decan-8-yl)benzyl)piperazine-1-carboxylate] | # (# is ≤25%) | ### (### is ≥75%) | – | –
8 | O=C(OC(C(F)(F)F)C(F)(F)F)N1CCC2(CCN(Cc3cccc(Cl)c3N3CCCC3)CC2)C1 [Example 171, 1,1,1,3,3,3-Hexafluoropropan-2-yl 8-(3-chloro-2-(pyrrolidin-1-yl)benzyl)-2,8-diazaspiro[4.5]decane-2-carboxylate] | # (# is ≤25%) | ### (### is ≥75%) | – | –
9 | O=C(OC(C(F)(F)F)C(F)(F)F)N1CCC2(CCN(Cc3ccc(Cl)c(N4CCCC4)c3)CC2)C1 [Example 172, 1,1,1,3,3,3-Hexafluoropropan-2-yl 8-(4-chloro-3-(pynolidin-1-yl)benzyl)-2,8-diazaspiro[4.5]decane-2-carboxylate] | – | – | 25 to 75 | > 75
10 | CCN1CC2(CCN(c3cc(Cl)ccc3CN3CCN(C(=O)OC(C(F)(F)F)C(F)(F)F)CC3)C2)C1 [Example 173, 1,1,1,3,3,3-Hexafluoropropan-2-yl 4-(4-chloro-2-(2-ethyl-2,6-diazaspiro[3.4]octan-6-yl)benzyl)piperazine-1-carboxylate] | # (# is ≤25%) | ### (### is ≥75%) | – | –
11 | CS(=O)(=O)N1CCC2(CCN(c3cc(Cl)ccc3CN3CCN(C(=O)OC(C(F)(F)F)C(F)(F)F)CC3)CC2)C1 [Example 174, 1,1,1,3,3,3-Hexafluoropropan-2-yl 4-(4-chloro-2-(2-(methylsulfonyl)-2,8-diazaspiro[4.5]decan-8-yl)benzyl)piperazine-1-carboxylate] | # (# is ≤25%) | ### (### is ≥75%) | – | –
12 | CS(=O)(=O)N1CC2(CCN(c3cc(Cl)ccc3CN3CCN(C(=O)OC(C(F)(F)F)C(F)(F)F)CC3)C2)C1 [Example 175, 1,1,1,3,3,3-Hexafluoropropan-2-yl 4-(4-chloro-2-(2-(methylsulfonyl)-2,6-diazaspiro[3.4]octan-6-yl)benzyl)piperazine-1-carboxylate] | # (# is ≤25%) | ### (### is ≥75%) | – | –
13 | CC(=O)N1CC2(CCN(c3cc(Cl)ccc3CN3CCN(C(=O)OC(C(F)(F)F)C(F)(F)F)CC3)C2)C1 [Example 176, 1,1,1,3,3,3-Hexafluoropropan-2-yl 4-(2-(2-acetyl-2,6-diazaspiro[3.4]octan-6-yl)-4-chlorobenzyl)piperazine-1-carboxylate] | # (# is ≤25%) | ### (### is ≥75%) | – | –
14 | CN1CCC2(CCN(c3cc(Cl)ccc3CN3CCN(C(=O)OC(C(F)(F)F)C(F)(F)F)CC3)CC2)C1 [Example 177, 1,1,1,3,3,3-Hexafluoropropan-2-yl 4-(4-chloro-2-(2-methyl-2,8-diazaspiro[4.5]decan-8-yl)benzyl)piperazine-1-carboxylate] | # (# is ≤25%) | ### (### is ≥75%) | – | –
15 | CC(=O)N1CCC2(CCN(c3cc(Cl)ccc3CN3CCN(C(=O)OC(C(F)(F)F)C(F)(F)F)CC3)CC2)C1 [Example 178, 1,1,1,3,3,3-Hexafluoropropan-2-yl 4-(2-(2-acetyl-2,8-diazaspiro[4.5]decan-8-yl)-4-chlorobenzyl)piperazine-1-carboxylate] | # (# is ≤25%) | ### (### is ≥75%) | – | –
16 | CN1CC2(CCN(c3cc(C(F)(F)F)ccc3CN3CCN(C(=O)OC(C(F)(F)F)C(F)(F)F)CC3)C2)C1 [Example 179, 1,1,1,3,3,3-Hexafluoropropan-2-yl 4-(2-(2-methyl-2,6-diazaspiro[3,4]octan-6-yl)-4-(trifluoromethyl)benzyl) piperazine-1-carboxylate] | # (# is ≤25%) | ### (### is ≥75%) | – | –
17 | CC(=O)N1CC2(CCN(c3cc(C(F)(F)F)ccc3CN3CCN(C(=O)OC(C(F)(F)F)C(F)(F)F)CC3)C2)C1 [Example 180, 1,1,1,3,3,3-Hexafluoropropan-2-yl 4-(2-(2-acetyl-2,6-diazaspiro[3,4]octan-6-yl)-4-(trifluoromethyl)benzyl)pipera zine-1-carboxylate] | # (# is ≤25%) | ### (### is ≥75%) | – | –
18 | O=C(OC(C(F)(F)F)C(F)(F)F)N1CCC2(CCN(Cc3ccc(Cl)cc3N3CCOCC3)CC2)C1 [Example 181, 1,1,1,3,3,3-Hexafluoropropan-2-yl 8-(4-chloro-2-morpholinobenzyl)-2,8-diazaspiro[4.5]decane-2-carboxylate] | # (# is ≤25%) | ### (### is ≥75%) | – | –
19 | CN1CCC2(CCN(c3cc(C(F)(F)F)ccc3CN3CCN(C(=O)OC(C(F)(F)F)C(F)(F)F)CC3)CC2)C1 [Example 182, 1,1,1,3,3,3-Hexafluoropropan-2-yl 4-(2-(2-methyl-2,8-diazaspiro[4.5]decan-8-yl)-4-(trifluoromethyl)benzyl) piperazine-1-carboxylate] | # (# is ≤25%) | ### (### is ≥75%) | – | –
20 | CCN1CCC2(CCN(c3cc(C(F)(F)F)ccc3CN3CCN(C(=O)OC(C(F)(F)F)C(F)(F)F)CC3)CC2)C1 [Example 183, 1,1,1,3,3,3-Hexafluoropropan-2-yl 4-(2-(2-ethyl-2,8-diazaspiro[4.5]decan-8-yl)-4-(trifluoromethyl)benzyl) piperazine-1-carboxylate] | # (# is ≤25%) | ### (### is ≥75%) | – | –
21 | CCN1CC2(CCN(c3cc(C(F)(F)F)ccc3CN3CCN(C(=O)OC(C(F)(F)F)C(F)(F)F)CC3)C2)C1 [Example 184, 1,1,1,3,3,3-Hexafluoropropan-2-yl 4-(2-(2-ethyl-2,6-diazaspiro[3,4]octan-6-yl)-4-(trifluoromethyl)benzyl) piperazine-1-carboxylate] | # (# is ≤25%) | ### (### is ≥75%) | – | –
